# Tests used:
# Solubility in water = type: physicochemical
# Method: A solution of D-isoglutamyl-D-tryptophan and sodium hydroxide in water is prepared by adding solid D-isoglutamyl-D-tryptophan to sodium hydroxide solution. […] Sodium hydroxide is chosen based on the convenience in obtaining sodium hydroxide solution, however other sodium bases such as sodium hydride, sodium carbonate, sodium bicarbonate can be used. These chemicals are obvious chemical equivalents to sodium hydroxide for step (a) of the process. In step (b), the solution is filtered to remove any particulates prior to proceeding to step (c).
# [1] = Speciation plot / pH of aqueous solution (Hyperquad Simulation & Speciation, experimentally determined pKas); type: physicochemical
# Description: We have determined that an advantageous salt for use in pharmaceutical preparations is the mono-sodium salt of the D-isoglutamyl-D-tryptophan, which can be formally represented by formula III, which is the predominant pharmaceutical salt at neutral pH. This takes advantage of the fact that the amino acid is a zwitterion. We have determined that the mono-sodium salt as shown in formula III is the most preferred salt in pharmaceutical preparations. The di-sodium salt of formula II is the predominant species at a pH of about 12 or above. A solution of di-sodium salt in water will have a pH of about 12 and therefore it is unsuitable for use in a liquid formulation. Adjustment of a solution of the di-sodium salt back to a pH of about 7 to about 7.4, in fact produces the mono-sodium salt as the predominant species in solution.
# FIG. 1 is a speciation plot of the dipeptide H-D-iGlu-D-Trp-OH and its salt calculated with the software Hyperquad Simulation & Speciation using experimentally determined pKas of the acid and amine groups. LH2=H-D-iGlu-D-Trp-OH in diacid form represented by a compound of formula I, LH=mono carboxylic acid salt such as the mono-sodium salt represented by a compound of formula III, L=dicarboxylic acid salt such as the di-sodium salt represented by a compound of formula II, LH3=acid addition salt of H-D-iGlu-D-Trp-OH such as the mono hydrochloride salt of a compound of formula I wherein the NH2 is protonated. The X axis provides the pH of the solution. The Y axis reports the molar fraction of the species present at a particular pH. Note: % formation relative to L is the default terminology of the software. The concentration of 0.5M is used to reflect the equivalency of 1 gm of thymodepressin in 6 ml water during isolation purposes.
# Depending on its concentration, the pH of a solution of di-sodium salt is more than about 8.2. A solution containing 100% of the di-sodium salt has pH of greater than about 11.5 as per speciation plot (FIG. 1). The high pH is unsuitable for dosing to human as a solution. pH adjustment from about 7.2 to about 7.4 with mineral acid introduces additional salt, for example, sodium chloride into the formulation.
# [2] = oral drug in traditional tablet or capsule form; cited from earlier work
# [3] = Hygroscopicity of the solid in air; type: physicochemical
# Method: A powdery or amorphous form of a compound, intended for pharmaceutical use may give rise to manufacturing problems due to bulk density issues, hygroscopicity and variable water content that cannot be corrected by vacuum drying. D-isoglutamyl-D-tryptophan is a dipeptide and the drying of an amorphous form at elevated temperature, for example, 80-100° C. under vacuum is not recommended. Thus, there are serious difficulties experienced during the purification of the di-sodium salt of D-isoglutamyl-D-tryptophan and obtaining the pure di-sodium salt on a manufacturing scale. Further, as discussed above, there is no published procedure for its preparation.
compound,measurement,setting,value
N[C@H](CCC(=O)N[C@H](Cc1c[nH]c2ccccc12)C(=O)O)C(=O)O [D-isoglutamyl-D-tryptophan],solubility in water,Solubility in water,< 20 mg per ml
same,fraction present in the mono-sodium salt form,"[1]; in water at a pH of about 7.0 to about 7.4, 0.5M",about 100%
same,oral bioavailability,[2],not bioavailable
di-sodium salt of D-isoglutamyl-D-tryptophan,behaviour of the freeze-dried solid in air,[3]; freeze-dried,turning into a gel in a matter of minutes in air
same,hygroscopicity,[3]; solid form,extremely hygroscopic
same,pH of a solution containing 100% of the di-sodium salt,[1]; as per speciation plot (FIG. 1),greater than 11.5
same,pH of a solution,[1]; depending on its concentration,more than 8.2
same,pH of a solution in water,[1]; solution of di-sodium salt in water,about 12

# — patent US8207217B2 (Apotex Technologies Inc, priority 2007, dated 2012)
